Consider 14 compounds from ChEMBL document CHEMBL1126996, “Structure-activity relationships of 6-substituted benzopyran-4-carbothioamide potassium channel openers” (Bioorg Med Chem Lett, 1993).

Usually EC50 stands for the concentration that produces a half-maximal response. Read a low EC50 as an effect from little substance.

Experiment [1] is filed under the species Rattus norvegicus. Description: Percent of intrinsic activity for vasorelaxant effect. Type of experiment: functional.
The species named for experiment [2] is Rattus norvegicus. In words: Negative logarithm of the molar concentration required to relax rat aorta precontracted with 30 mM KCl by 50% of IA. Type of experiment: functional.

Regarding `C/N=C(/S)C1=CC(C)(C)Oc2ccc(Cl)cc21`, the IA in experiment [1] is 73.1%. In experiment [2], this compound had an EC50 of 37.2 nM.
Regarding `C/N=C(/S)C1=CC(C)(C)Oc2ccc(C(F)(F)C(F)(F)F)cc21`, in experiment [1], the IA is reported as 55.4%. In experiment [2], this compound had an EC50 of 12.6 nM.
The compound `C/N=C(/S)C1=CC(C)(C)Oc2ccc([N+](=O)[O-])cc21` displayed an IA in experiment [1] of 63.5%. In experiment [2], this compound showed an EC50 of 1.35 nM.
As for `C/N=C(/S)C1=CC(C)(C)Oc2ccc(S(C)(=O)=O)cc21`, the IA in experiment [1] turned out to be 69.8%. This compound also gave an EC50 in experiment [2] of 457 nM.
In experiment [1], `CCc1ccc2c(c1)C(/C(S)=N\C)=CC(C)(C)O2` had an IA of 78.7%. In addition, in experiment [2], a half-maximal effect (EC50) was put at 324 nM.
For `C/N=C(/S)C1=CC(C)(C)Oc2ccccc21`, the IA in experiment [1] came out at 89.3%. This compound also showed an EC50 in experiment [2] of 4270 nM.
Turning to `C/N=C(/S)C1=CC(C)(C)Oc2ccc(OC(F)(F)F)cc21`, in experiment [1], the IA is 76.1%. Further, the 50% effective concentration (EC50) in experiment [2] is 4.07 nM.
In turn, `C/N=C(/S)C1=CC(C)(C)Oc2ccc(Br)cc21` gave an IA in experiment [1] of 67.5%. In experiment [2], this compound had an EC50 of 9.33 nM.
Compound `C/N=C(/S)C1=CC(C)(C)Oc2ccc(C#N)cc21` registered an IA in experiment [1] of 89%. Moreover, the midpoint of the response in experiment [2], the EC50, lay at 24.5 nM.
In the same order, the values of `C/N=C(/S)C1=CC(C)(C)Oc2ccc(C(F)(F)F)cc21` are 73% and 2.04 nM.
As for `C/N=C(/S)C1=CC(C)(C)Oc2ccc(S(=O)(=O)c3ccccc3)cc21`, the IA in experiment [1] turned out to be 73.7%. The same compound showed an EC50 in experiment [2] of 19.1 nM.
Compound `C/N=C(/S)C1=CC(C)(C)Oc2ccc(OC(C)=O)cc21` came in with an IA in experiment [1] of 76.1%. Also, the response in experiment [2] was half-maximal at 95.5 nM (EC50).
Compound `CNC(=S)C1=CC(C)(C)Oc2ccc(OC)cc21` gave an IA in experiment [1] of 61.5%. Moreover, a half-maximal response in experiment [2] (EC50) required 417 nM.
For the compound `CC1(C)Oc2ccc(C#N)cc2[C@@H](N2CCCC2=O)[C@@H]1O` [CROMAKALIM], in experiment [1], the IA worked out at 74.7%. The compound also gave an EC50 in experiment [2] of 170 nM.
